The results in this text go back to patent US8623879B2, “1-heterocyclyl-1,5-dihydro-pyrazolo[3,4-D] pyrimidin-4-one derivates and their use as PDE9A modulators” (Boehringer Ingelheim International GmbH, priority 2008, dated 2014).

The assay has as its target T1, human PDE9A2 (Homo sapiens, UniProt O76083).
T1 construct: made in house; host or cells: Sf9 insect cells (infected); crude lysate used as enzyme source
Nature of the assay: PDE9A2 enzymatic activity assay (scintillation proximity assay, SPA). Conditions: for inhibition at 10 µM: read-out: % inhibition of PDE9A2 (at 10 micromolar concentration), 10 micromolar concentration; for inhibition at 10 µM / % inhibition of PDE9A2 (at 10 micromolar concentration): values above 100% adjusted to 100%; for IC50: reported only as range 1-100 or 101-1200 nanomolar, specific value lies within range, read-out: IC50 within range [nanomolar (nM)]. The assay is classed as biochemical.

T1 sequence (O76083 1-533 isoform O76083-2): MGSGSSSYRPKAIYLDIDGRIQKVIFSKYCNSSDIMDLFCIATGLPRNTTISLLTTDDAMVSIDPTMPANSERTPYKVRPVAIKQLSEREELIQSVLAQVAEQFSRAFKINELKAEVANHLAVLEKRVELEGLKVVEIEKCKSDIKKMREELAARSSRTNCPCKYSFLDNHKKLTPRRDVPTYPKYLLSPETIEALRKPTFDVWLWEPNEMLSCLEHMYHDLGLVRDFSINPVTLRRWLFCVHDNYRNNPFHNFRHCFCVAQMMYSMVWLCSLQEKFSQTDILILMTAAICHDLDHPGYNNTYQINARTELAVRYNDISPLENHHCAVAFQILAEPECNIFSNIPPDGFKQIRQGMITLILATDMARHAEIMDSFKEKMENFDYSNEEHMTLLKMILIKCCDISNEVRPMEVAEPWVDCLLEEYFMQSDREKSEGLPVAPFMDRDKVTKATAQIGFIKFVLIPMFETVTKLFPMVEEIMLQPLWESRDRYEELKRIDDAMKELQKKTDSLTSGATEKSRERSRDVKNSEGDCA

One may read the IC50 as the concentration that inhibits the measured activity by half. For the compound `O=c1[nH]c(Cc2ccc(F)c(Cl)c2)nc2c1cnn2C1CCCOC1` (racemic) [Example 102], the inhibition at 10 µM was 100% and the IC50 lay in the range of 1 to 100 nM.

Regarding `O=c1[nH]c(CC2CCCCC2)nc2c1cnn2C1CCCOC1` (racemic) [Example 103], the inhibition at 10 µM came to 99% and the 50% inhibitory concentration (IC50) lay within 1 to 100 nM.

In the case of `CC1(C)CC(n2ncc3c(=O)[nH]c(CC4CCCC4)nc32)CCO1` (racemic) [Example 104], the inhibition at 10 µM was found to be 95% and the half-inhibitory concentration (IC50) was in the range of 101 to 1200 nM.

For `CCOc1ccccc1Cc1nc2c(cnn2C2CCOC(C)(C)C2)c(=O)[nH]1` (racemic) [Example 105], the inhibition at 10 µM turned out to be 84% and the half-inhibitory concentration (IC50) lay in the range of 101 to 1200 nM.

With `CC(C)Cc1nc2c(cnn2C2CCOC(C)(C)C2)c(=O)[nH]1` (racemic) [Example 106], the inhibition at 10 µM stood at 87% and the IC50 lay within 101 to 1200 nM.

Take `CC1(C)CC(n2ncc3c(=O)[nH]c(CC4CCC4)nc32)CCO1` (racemic) [Example 108]: the inhibition at 10 µM stood at 89% and the 50% inhibitory concentration (IC50) was 101 to 1200 nM.

Take `CC1CC(n2ncc3c(=O)[nH]c(Cc4ccccn4)nc32)CCO1` (racemic) [Example 111]: the inhibition at 10 µM is 88% and the IC50 is 101 to 1200 nM.

On to `CC1CC(n2ncc3c(=O)[nH]c(CC4CCCC4)nc32)CCO1` (racemic) [Example 112], for which the inhibition at 10 µM came out at 97% and the half-maximal inhibitory concentration (IC50) is 1 to 100 nM.

Regarding `CC1CC(n2ncc3c(=O)[nH]c(Cc4ccccc4C(F)(F)F)nc32)CCO1` (racemic) [Example 113], the inhibition at 10 µM was 92% and the concentration for half-maximal inhibition (IC50) is 101 to 1200 nM.

Turning to `CC(C)Cc1nc2c(cnn2C2CCOC(C)C2)c(=O)[nH]1` (racemic) [Example 114], the inhibition at 10 µM came to 89% and the half-inhibitory concentration (IC50) was in the range of 101 to 1200 nM.

For `CC(C)Cc1nc2c(cnn2C2CCOC(C)C2)c(=O)[nH]1` (racemic) [Example 115], the “% inhibition of PDE9A2 (at 10 micromolar concentration)” value (“% inhibition of PDE9A2” below) came to 92% and the half-maximal inhibitory concentration (IC50) lay within 101 to 1200 nM.

Turning to `CC1CC(n2ncc3c(=O)[nH]c(Cc4ccccc4C(F)(F)F)nc32)CCO1` (racemic) [Example 116], the “% inhibition of PDE9A2” value is given as 93% and the IC50 fell in the range of 101 to 1200 nM.

For the compound `CC1CC(n2ncc3c(=O)[nH]c(CC4CCCC4)nc32)CCO1` (racemic) [Example 117], the “% inhibition of PDE9A2” value is reported as 97% and the concentration for half-maximal inhibition (IC50) lay in the range of 1 to 100 nM.

For `CC1CC(n2ncc3c(=O)[nH]c(Cc4ccccn4)nc32)CCO1` (racemic) [Example 118], the “% inhibition of PDE9A2” value was 89% and the IC50 was in the range of 101 to 1200 nM.

With `CCC(CC)Cc1nc2c(cnn2C2CCOC(C)C2)c(=O)[nH]1` (racemic) [Example 119], the inhibition at 10 µM was 95% and the half-maximal inhibitory concentration (IC50) was 1 to 100 nM.

As for `CC1CC(n2ncc3c(=O)[nH]c(CC4CCC4)nc32)CCO1` (racemic) [Example 120], the inhibition at 10 µM stood at 95% and the half-maximal inhibitory concentration (IC50) lay in the range of 1 to 100 nM.

On to `CC1CC(n2ncc3c(=O)[nH]c(Cc4ccccc4C#N)nc32)CCO1` (racemic) [Example 121], for which the inhibition at 10 µM came out at 94% and the IC50 lay within 101 to 1200 nM.

For `COc1cccnc1Cc1nc2c(cnn2C2CCCOC2)c(=O)[nH]1` (racemic) [Example 122], the inhibition at 10 µM is 85% and the IC50 lay within 101 to 1200 nM.

As for `O=c1[nH]c(Cc2ccccn2)nc2c1cnn2C1CCOC1` (racemic) [Example 124], the inhibition at 10 µM was 95% and the IC50 was 101 to 1200 nM.

Consider `N#Cc1ccccc1Cc1nc2c(cnn2C2CCCOC2)c(=O)[nH]1` (racemic) [Example 126], for which the inhibition at 10 µM stood at 98% and the concentration for half-maximal inhibition (IC50) lay in the range of 1 to 100 nM.

For `COc1ccccc1Cc1nc2c(cnn2C2CCCOC2)c(=O)[nH]1` (racemic) [Example 127], the inhibition at 10 µM is 97% and the IC50 lay within 1 to 100 nM.

Turning to `O=c1[nH]c(Cc2cccc(C(F)(F)F)c2)nc2c1cnn2C1CCCOC1` (racemic) [Example 129], the inhibition at 10 µM is 99% and the IC50 fell in the range of 1 to 100 nM.

For `CCC(CC)Cc1nc2c(cnn2C2CCCOC2)c(=O)[nH]1` (racemic) [Example 130], the inhibition at 10 µM came to 99% and the IC50 was in the range of 1 to 100 nM.

As to `CC(C)Cc1nc2c(cnn2C2CCOCC2C)c(=O)[nH]1` (racemic) [Example 132-1], the inhibition at 10 µM worked out at 97% and the IC50 lay in the range of 1 to 100 nM.

For the compound `CC1COCCC1n1ncc2c(=O)[nH]c(CC3CCCC3)nc21` (racemic) [Example 132-2], the inhibition at 10 µM came out at 100% and the IC50 fell in the range of 1 to 100 nM.

In the case of `CC1COCCC1n1ncc2c(=O)[nH]c(CC3CCCC3)nc21` (racemic) [Example 132-5], the “% inhibition of PDE9A2” value came to 100% and the half-inhibitory concentration (IC50) was in the range of 1 to 100 nM.

In the case of `CC(C)Cc1nc2c(cnn2C2CCOCC2C)c(=O)[nH]1` (racemic) [Example 132-8], the “% inhibition of PDE9A2” value is 94% and the IC50 was in the range of 101 to 1200 nM.

In the case of `CCC(C)Cc1nc2c(cnn2C2CCOCC2)c(=O)[nH]1` (racemic) [Example 135], the inhibition at 10 µM turned out to be 98% and the concentration for half-maximal inhibition (IC50) is 1 to 100 nM.

Regarding `O=c1[nH]c(Cc2ccccn2)nc2c1cnn2C1CCCCO1` (racemic) [Example 145], the inhibition at 10 µM was 84% and the IC50 is 101 to 1200 nM.

For `CC(C)Cc1nc2c(cnn2C2CCCCO2)c(=O)[nH]1` (racemic) [Example 146], the inhibition at 10 µM amounted to 91% and the half-inhibitory concentration (IC50) fell in the range of 101 to 1200 nM.

Take `O=c1[nH]c(Cc2ccccc2C(F)(F)F)nc2c1cnn2C1CCCCO1` (racemic) [Example 147-1]: the inhibition at 10 µM worked out at 86% and the IC50 fell in the range of 101 to 1200 nM.

Regarding `O=c1[nH]c(CC2CC2)nc2c1cnn2C1CCCCO1` (racemic) [Example 147-2], the inhibition at 10 µM was determined as 87% and the IC50 was in the range of 101 to 1200 nM.

Turning to `O=c1[nH]c(Cc2cccc(C(F)(F)F)c2)nc2c1cnn2C1CCCCO1` (racemic) [Example 147-3], the inhibition at 10 µM stood at 95% and the IC50 lay in the range of 1 to 100 nM.

For `O=c1[nH]c(CC2CCCC2)nc2c1cnn2C1CCCCO1` (racemic) [Example 147], the inhibition at 10 µM worked out at 99% and the IC50 lay in the range of 1 to 100 nM.

Turning to `COC(=O)N1CCCC(n2ncc3c(=O)[nH]c(CC4CCCC4)nc32)C1` (racemic) [Example 154], the inhibition at 10 µM worked out at 100% and the concentration for half-maximal inhibition (IC50) fell in the range of 1 to 100 nM.

`COC(=O)N1CCCC(n2ncc3c(=O)[nH]c(Cc4ccccc4)nc32)C1` (racemic) [Example 155]: the inhibition at 10 µM worked out at 100% and the IC50 was 1 to 100 nM.

As to `COC(=O)N1CCCC(n2ncc3c(=O)[nH]c(Cc4ccccc4OC(F)(F)F)nc32)C1` (racemic) [Example 156], the inhibition at 10 µM amounted to 99% and the 50% inhibitory concentration (IC50) is 1 to 100 nM.

Regarding `CC(=O)N1CCCC(n2ncc3c(=O)[nH]c(CC4CCCC4)nc32)C1` (racemic) [Example 157], the inhibition at 10 µM stood at 97% and the IC50 fell in the range of 1 to 100 nM.

Regarding `CC(=O)N1CCCC(n2ncc3c(=O)[nH]c(Cc4ccccc4)nc32)C1` (racemic) [Example 158], the inhibition at 10 µM is 97% and the IC50 was in the range of 1 to 100 nM.

In the case of `CN(C)C(=O)N1CCCC(n2ncc3c(=O)[nH]c(Cc4ccccc4)nc32)C1` (racemic) [Example 159], the inhibition at 10 µM was 100% and the half-maximal inhibitory concentration (IC50) lay within 1 to 100 nM.

As to `CN(C)C(=O)N1CCCC(n2ncc3c(=O)[nH]c(CC4CCCC4)nc32)C1` (racemic) [Example 160], the inhibition at 10 µM worked out at 96% and the half-maximal inhibitory concentration (IC50) is 1 to 100 nM.

Consider `CN(C)C(=O)N1CCCC(n2ncc3c(=O)[nH]c(Cc4ccccc4OC(F)(F)F)nc32)C1` (racemic) [Example 161], for which the inhibition at 10 µM was 95% and the 50% inhibitory concentration (IC50) fell in the range of 101 to 1200 nM.

In the case of `O=C(Oc1ccc(F)cc1)N1CCCC(n2ncc3c(=O)[nH]c(CC4CCCC4)nc32)C1` (racemic) [Example 162], the inhibition at 10 µM was 98% and the 50% inhibitory concentration (IC50) fell in the range of 1 to 100 nM.

`O=C(c1ccccc1)N1CCCC(n2ncc3c(=O)[nH]c(Cc4ccccc4OC(F)(F)F)nc32)C1` (racemic) [Example 163]: the inhibition at 10 µM came out at 97% and the IC50 was in the range of 101 to 1200 nM.

On to `CC(=O)N1CCC(n2ncc3c(=O)[nH]c(Cc4ccccc4OC(F)(F)F)nc32)C1` (racemic) [Example 164], for which the inhibition at 10 µM is 98% and the IC50 fell in the range of 101 to 1200 nM.

In the case of `CC(=O)N1CCC(n2ncc3c(=O)[nH]c(CC4CCCC4)nc32)C1` (racemic) [Example 165], the inhibition at 10 µM was determined as 99% and the half-inhibitory concentration (IC50) was in the range of 101 to 1200 nM.

For `O=C(c1ccccc1)N1CCC(n2ncc3c(=O)[nH]c(Cc4ccccc4)nc32)C1` (racemic) [Example 166], the inhibition at 10 µM was 92% and the IC50 was in the range of 101 to 1200 nM.

Regarding `O=C(c1ccccc1)N1CCC(n2ncc3c(=O)[nH]c(CC4CCCC4)nc32)C1` (racemic) [Example 167], the inhibition at 10 µM was determined as 93% and the IC50 is 101 to 1200 nM.

Consider `COc1ccccc1Cc1nc2c(cnn2C2CCN(C(C)=O)C2)c(=O)[nH]1` (racemic) [Example 168], for which the inhibition at 10 µM came to 90% and the 50% inhibitory concentration (IC50) was 101 to 1200 nM.

Consider `O=C(c1ccccc1)N1CCC(n2ncc3c(=O)[nH]c(Cc4ccccc4OC(F)(F)F)nc32)C1` (racemic) [Example 169], for which the inhibition at 10 µM came to 86% and the half-inhibitory concentration (IC50) fell in the range of 101 to 1200 nM.

As for `COc1ccccc1Cc1nc2c(cnn2C2CCN(C(=O)c3ccccc3)C2)c(=O)[nH]1` (racemic) [Example 170], the inhibition at 10 µM amounted to 75% and the IC50 lay in the range of 101 to 1200 nM.

Turning to `O=C(c1ccccc1)N1CCC(n2ncc3c(=O)[nH]c(CC4CCC4)nc32)C1` (racemic) [Example 171], the inhibition at 10 µM was 100% and the half-maximal inhibitory concentration (IC50) lay in the range of 101 to 1200 nM.

Turning to `CC(=O)N1CCC(n2ncc3c(=O)[nH]c(Cc4ccccc4)nc32)C1` (racemic) [Example 172], the inhibition at 10 µM turned out to be 100% and the IC50 was in the range of 1 to 100 nM.
